pEC50: −log10 of the molar value. Numbered stars: 1 amine (or outer) side, 2 acyl side, 3 side chain; on linkers, the order of the positions; unused ones are H or OH. Side chains are listed from the residue outwards. Peptide text beside a SMILES is read from it. * marks the point of attachment. γGlu = O=C(O)[C@H](CCC(=O)[*:2])N[*:1]; Palmitoyl = CCCCCCCCCCCCCCCC(=O)*; Ahx = NCCCCCC(=O)O
Tests used:
Assay in all cases: cAMP activity assay in assay medium (assay 1)
Format in all cases: cell-based
Human GIPr = target: T1, Human GIPr (Homo sapiens, UniProt P48546); settings: assay medium; Table 4; read-out: hGIPR EC50
T1 construct: expressed in transfected cells
T1 sequence (P48546 22-466): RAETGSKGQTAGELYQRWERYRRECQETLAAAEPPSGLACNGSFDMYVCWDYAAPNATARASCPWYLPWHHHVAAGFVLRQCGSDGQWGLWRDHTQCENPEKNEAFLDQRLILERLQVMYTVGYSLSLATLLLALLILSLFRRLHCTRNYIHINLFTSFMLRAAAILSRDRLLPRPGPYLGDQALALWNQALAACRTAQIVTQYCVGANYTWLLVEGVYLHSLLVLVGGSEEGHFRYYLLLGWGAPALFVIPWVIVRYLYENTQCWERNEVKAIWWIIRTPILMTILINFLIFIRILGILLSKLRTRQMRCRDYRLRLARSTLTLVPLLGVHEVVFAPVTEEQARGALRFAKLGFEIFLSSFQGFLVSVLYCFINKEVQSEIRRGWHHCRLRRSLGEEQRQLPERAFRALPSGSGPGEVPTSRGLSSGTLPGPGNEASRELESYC
Excerpt: (§1) Biological Activity of Peptides in Cell-Based cAMP Activity Assay (Assay 1):
(§2) All sample dilutions were made in duplicate.

Human GlucR = target: T2, Human GlucR (Homo sapiens, UniProt P47871); settings: assay medium; Table 4; read-out: hGlucR EC50
T2 construct: expressed in transfected cells
Excerpt: as §1, §2

Human GLP1R = Human GLP1R (Homo sapiens, UniProt P43220); set-up: expressed in transfected cells; settings: assay medium; Table 4; read-out: hGLP1R EC50
Excerpt: as §1, §2

T2 sequence (P47871 26-477): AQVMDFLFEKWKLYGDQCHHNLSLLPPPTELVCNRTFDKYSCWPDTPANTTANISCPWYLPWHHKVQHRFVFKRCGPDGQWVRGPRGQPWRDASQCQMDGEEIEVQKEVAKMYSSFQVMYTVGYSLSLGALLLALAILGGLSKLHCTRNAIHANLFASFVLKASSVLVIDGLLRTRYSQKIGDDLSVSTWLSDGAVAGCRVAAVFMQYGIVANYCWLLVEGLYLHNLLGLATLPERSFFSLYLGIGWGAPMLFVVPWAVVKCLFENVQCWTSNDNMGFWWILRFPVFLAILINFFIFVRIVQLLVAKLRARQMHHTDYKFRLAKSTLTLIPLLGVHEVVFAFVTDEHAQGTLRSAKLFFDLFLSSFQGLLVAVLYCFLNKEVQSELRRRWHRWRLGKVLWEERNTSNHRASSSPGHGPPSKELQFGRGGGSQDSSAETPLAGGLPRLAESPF
Chain of Human GLP1R (P43220 24-463): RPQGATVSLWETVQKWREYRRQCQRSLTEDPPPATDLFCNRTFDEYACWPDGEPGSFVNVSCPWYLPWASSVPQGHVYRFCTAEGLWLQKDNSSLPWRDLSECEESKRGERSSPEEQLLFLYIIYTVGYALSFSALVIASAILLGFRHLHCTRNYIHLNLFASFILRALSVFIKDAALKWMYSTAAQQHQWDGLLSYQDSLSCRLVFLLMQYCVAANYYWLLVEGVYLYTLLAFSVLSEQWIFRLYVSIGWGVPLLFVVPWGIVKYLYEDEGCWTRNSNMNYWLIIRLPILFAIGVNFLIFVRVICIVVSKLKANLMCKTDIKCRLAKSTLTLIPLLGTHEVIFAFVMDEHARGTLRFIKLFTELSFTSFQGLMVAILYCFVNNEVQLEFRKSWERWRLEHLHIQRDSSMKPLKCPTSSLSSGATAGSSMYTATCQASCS

| pEC50 (Human GIPr) | pEC50 (Human GlucR) | pEC50 (Human GLP1R) | SMILES |
| --- | --- | --- | --- |
| 7.07 | 11.25 | 10.63 | CCCCCCCCCCCCCCCC(=O)NCCCCCC(=O)NCCCC[C@H](NC(=O)[C@H](CO)NC(=O)[C@H](CC(=O)O)NC(=O)[C@H](CC(C)C)NC(=O)[C@H](Cc1ccc(O)cc1)NC(=O)[C@H](CCC(=O)O)NC(=O)[C@H](CO)NC(=O)[C@H](Cc1ccc(O)cc1)NC(=O)[C@H](CC(=O)O)NC(=O)[C@H](CO)NC(=O)[C@@H](NC(=O)[C@H](Cc1ccccc1)NC(=O)[C@@H](NC(=O)CNC(=O)[C@H](CCC(N)=O)NC(=O)[C@H](CO)NC(=O)[C@@H](N)Cc1c[nH]cn1)[C@@H](C)O)[C@@H](C)O)C(=O)N[C@@H](CCCNC(=N)N)C(=O)N[C@@H](C)C(=O)N[C@@H](CCCNC(=N)N)C(=O)N[C@@H](CC(=O)O)C(=O)N[C@@H](Cc1ccccc1)C(=O)N[C@H](C(=O)N[C@@H](C)C(=O)N[C@@H](Cc1c[nH]c2ccccc12)C(=O)N[C@@H](CC(C)C)C(=O)N[C@@H](CCC(=O)O)C(=O)N[C@@H](C)C(=O)NCC(=O)NCC(N)=O)C(C)C [g838] (H-HSQGTFTSDYSEYLDSK([Ahx-Palmitoyl])RARDFVAWLEAGG-NH2; N-terminus assumed) |
| 6.40 | 8.61 | 9.77 | CCCCCCCCCCCCCCCC(=O)N[C@@H](CCC(=O)NCCCC[C@H](NC(=O)[C@H](CO)NC(=O)[C@H](Cc1ccc(O)cc1)NC(=O)[C@H](CC(=O)O)NC(=O)[C@H](CO)NC(=O)[C@@H](NC(=O)[C@H](Cc1ccccc1)NC(=O)[C@@H](NC(=O)CNC(=O)[C@H](CCC(N)=O)NC(=O)[C@H](CO)NC(=O)[C@@H](N)Cc1c[nH]cn1)[C@@H](C)O)[C@@H](C)O)C(=O)N[C@@H](Cc1ccc(O)cc1)C(=O)N[C@@H](CC(C)C)C(=O)N[C@@H](CC(=O)O)C(=O)N[C@@H](CO)C(=O)N[C@@H](CCC(=O)O)C(=O)N[C@@H](CCCNC(=N)N)C(=O)N[C@@H](C)C(=O)N[C@@H](CCCNC(=N)N)C(=O)N[C@@H](CC(=O)O)C(=O)N[C@@H](Cc1ccccc1)C(=O)N[C@H](C(=O)N[C@@H](C)C(=O)N[C@@H](Cc1c[nH]c2ccccc12)C(=O)N[C@@H](CC(C)C)C(=O)N[C@H](C(=O)N[C@@H](C)C(=O)NCC(=O)NCC(N)=O)C(C)C)C(C)C)C(=O)O [g728] (H-HSQGTFTSDYSK([γGlu-Palmitoyl])YLDSERARDFVAWLVAGG-NH2; N-terminus assumed) |
| 6.24 | 10.98 | 10.13 | CCCCCCCCCCCCCCCC(=O)N[C@@H](CCC(=O)NCCCC[C@H](NC(=O)[C@H](CO)NC(=O)[C@H](CC(=O)O)NC(=O)[C@H](CC(C)C)NC(=O)[C@H](Cc1ccc(O)cc1)NC(=O)[C@H](CCCCN)NC(=O)[C@H](CO)NC(=O)[C@H](Cc1ccc(O)cc1)NC(=O)[C@H](CC(=O)O)NC(=O)[C@H](CO)NC(=O)[C@@H](NC(=O)[C@H](Cc1ccccc1)NC(=O)[C@@H](NC(=O)CNC(=O)[C@H](CCC(N)=O)NC(=O)[C@H](CO)NC(=O)[C@@H](N)Cc1c[nH]cn1)[C@@H](C)O)[C@@H](C)O)C(=O)N[C@@H](CCCNC(=N)N)C(=O)N[C@@H](C)C(=O)N[C@@H](CCC(N)=O)C(=O)N[C@@H](CC(=O)O)C(=O)N[C@@H](Cc1ccccc1)C(=O)N[C@H](C(=O)N[C@@H](CCC(N)=O)C(=O)N[C@@H](Cc1c[nH]c2ccccc12)C(=O)N[C@@H](CC(C)C)C(=O)N[C@H](C(=O)N[C@@H](C)C(=O)NCC(=O)NCC(N)=O)C(C)C)C(C)C)C(=O)O [g335] |
| 7.09 | 7.09 | 9.61 | CCCCCCCCCCCCCCCC(=O)N[C@@H](CCC(=O)NCCCC[C@H](NC(=O)[C@H](CO)NC(=O)[C@H](CC(=O)O)NC(=O)[C@H](CC(C)C)NC(=O)[C@H](Cc1ccc(O)cc1)NC(=O)[C@H](CCCCN)NC(=O)[C@H](CO)NC(=O)[C@H](Cc1ccc(O)cc1)NC(=O)[C@H](CC(=O)O)NC(=O)[C@H](CO)NC(=O)[C@@H](NC(=O)[C@H](Cc1ccccc1)NC(=O)[C@@H](NC(=O)CNC(=O)[C@H](CCC(=O)O)NC(=O)[C@H](CO)NC(=O)[C@@H](N)Cc1c[nH]cn1)[C@@H](C)O)[C@@H](C)O)C(=O)N[C@@H](CCCNC(=N)N)C(=O)N[C@@H](C)C(=O)N[C@@H](CCC(=O)O)C(=O)N[C@@H](CC(=O)O)C(=O)N[C@@H](Cc1ccccc1)C(=O)N[C@H](C(=O)N[C@@H](CCC(=O)O)C(=O)N[C@@H](Cc1c[nH]c2ccccc12)C(=O)N[C@@H](CC(C)C)C(=O)N[C@H](C(=O)N[C@@H](C)C(=O)NCC(=O)NCC(N)=O)C(C)C)C(C)C)C(=O)O [g639] (H-HSEGTFTSDYSKYLDSK([γGlu-Palmitoyl])RAEDFVEWLVAGG-NH2; N-terminus assumed) |
| 6.40 | 11.55 | 9.98 | CCCCCCCCCCCCCCCC(=O)N[C@@H](CCC(=O)NCCCC[C@H](NC(=O)[C@H](CC(=O)O)NC(=O)[C@H](CC(C)C)NC(=O)[C@H](Cc1ccc(O)cc1)NC(=O)[C@H](CCCCN)NC(=O)[C@H](CO)NC(=O)[C@H](Cc1ccc(O)cc1)NC(=O)[C@H](CC(=O)O)NC(=O)[C@H](CO)NC(=O)[C@@H](NC(=O)[C@H](Cc1ccccc1)NC(=O)[C@@H](NC(=O)CNC(=O)[C@H](CCC(N)=O)NC(=O)[C@H](CO)NC(=O)[C@@H](N)Cc1c[nH]cn1)[C@@H](C)O)[C@@H](C)O)C(=O)N[C@@H](CCCNC(=N)N)C(=O)N[C@@H](CCCNC(=N)N)C(=O)N[C@@H](C)C(=O)N[C@@H](CCCNC(=N)N)C(=O)N[C@@H](CC(=O)O)C(=O)N[C@@H](Cc1ccccc1)C(=O)N[C@H](C(=O)N[C@@H](C)C(=O)N[C@@H](Cc1c[nH]c2ccccc12)C(=O)N[C@@H](CC(C)C)C(=O)N[C@@H](CCC(=O)O)C(=O)N[C@@H](C)C(=O)NCC(=O)NCC(N)=O)C(C)C)C(=O)O [g781] (H-HSQGTFTSDYSKYLDK([γGlu-Palmitoyl])RRARDFVAWLEAGG-NH2; N-terminus assumed) |
| 6.26 | 8.71 | 10.04 | CCCCCCCCCCCCCCCC(=O)N[C@@H](CCC(=O)NCCCC[C@H](NC(=O)[C@H](CO)NC(=O)[C@H](CC(=O)O)NC(=O)[C@H](CC(C)C)NC(=O)[C@H](Cc1ccc(O)cc1)NC(=O)[C@H](CCCCN)NC(=O)[C@H](CO)NC(=O)[C@H](Cc1ccc(O)cc1)NC(=O)[C@H](CC(=O)O)NC(=O)[C@H](CO)NC(=O)[C@@H](NC(=O)[C@H](Cc1ccccc1)NC(=O)[C@@H](NC(=O)CNC(=O)[C@H](CCC(=O)O)NC(=O)[C@H](CO)NC(=O)[C@@H](N)Cc1c[nH]cn1)[C@@H](C)O)[C@@H](C)O)C(=O)N[C@@H](CCCNC(=N)N)C(=O)N[C@@H](C)C(=O)N[C@@H](CCC(N)=O)C(=O)N[C@@H](CC(=O)O)C(=O)N[C@@H](Cc1ccccc1)C(=O)N[C@H](C(=O)N[C@@H](CCC(N)=O)C(=O)N[C@@H](Cc1c[nH]c2ccccc12)C(=O)N[C@@H](CC(C)C)C(=O)N[C@H](C(=O)N[C@@H](C)C(=O)NCC(=O)NCC(N)=O)C(C)C)C(C)C)C(=O)O [g381] (H-HSEGTFTSDYSKYLDSK([γGlu-Palmitoyl])RAQDFVQWLVAGG-NH2; N-terminus assumed) |
| 7.32 | 11.33 | 10.15 | CCCCCCCCCCCCCCCC(=O)N[C@@H](CCC(=O)NCCCC[C@H](NC(=O)[C@H](CO)NC(=O)[C@H](CC(=O)O)NC(=O)[C@H](CC(C)C)NC(=O)[C@H](Cc1ccc(O)cc1)NC(=O)[C@H](CCCCN)NC(=O)[C@H](CO)NC(=O)[C@H](Cc1ccc(O)cc1)NC(=O)[C@H](CC(=O)O)NC(=O)[C@H](CO)NC(=O)[C@@H](NC(=O)[C@H](Cc1ccccc1)NC(=O)[C@@H](NC(=O)CNC(=O)[C@H](CCC(N)=O)NC(=O)[C@H](CO)NC(=O)[C@@H](N)Cc1c[nH]cn1)[C@@H](C)O)[C@@H](C)O)C(=O)N[C@@H](CCCNC(=N)N)C(=O)N[C@@H](C)C(=O)N[C@@H](CCCNC(=N)N)C(=O)N[C@@H](CC(=O)O)C(=O)N[C@@H](Cc1ccccc1)C(=O)N[C@H](C(=O)N[C@@H](CCC(=O)O)C(=O)N[C@@H](Cc1c[nH]c2ccccc12)C(=O)N[C@@H](CC(C)C)C(=O)N[C@H](C(=O)N[C@@H](C)C(=O)NCC(=O)NCC(N)=O)C(C)C)C(C)C)C(=O)O [g766] (H-HSQGTFTSDYSKYLDSK([γGlu-Palmitoyl])RARDFVEWLVAGG-NH2; N-terminus assumed) |

| SMILES | pEC50 (Human GIPr) | pEC50 (Human GlucR) | pEC50 (Human GLP1R) |
| --- | --- | --- | --- |
| CCCCCCCCCCCCCCCC(=O)NCCCC[C@H](NC(=O)[C@H](CO)NC(=O)[C@@H]1CCCN1C(=O)[C@@H]1CCCN1C(=O)[C@@H]1CCCN1C(=O)[C@H](C)NC(=O)CNC(=O)[C@H](CO)NC(=O)[C@H](CO)NC(=O)[C@@H]1CCCN1C(=O)CNC(=O)CNC(=O)[C@H](CCCNC(=N)N)NC(=O)[C@@H](NC(=O)[C@H](CC(C)C)NC(=O)[C@H](Cc1c[nH]c2ccccc12)NC(=O)[C@H](CCC(N)=O)NC(=O)[C@@H](NC(=O)[C@H](Cc1ccccc1)NC(=O)[C@H](CC(=O)O)NC(=O)[C@H](CCC(N)=O)NC(=O)[C@H](C)NC(=O)[C@H](CCCNC(=N)N)NC(=O)[C@H](CCCNC(=N)N)NC(=O)[C@H](CO)NC(=O)[C@H](CC(=O)O)NC(=O)[C@H](CC(C)C)NC(=O)[C@H](Cc1ccc(O)cc1)NC(=O)[C@H](CCCCN)NC(=O)[C@H](CO)NC(=O)[C@H](Cc1ccc(O)cc1)NC(=O)[C@H](CC(=O)O)NC(=O)[C@H](CO)NC(=O)[C@@H](NC(=O)[C@H](Cc1ccccc1)NC(=O)[C@@H](NC(=O)CNC(=O)[C@H](CCC(N)=O)NC(=O)[C@H](CO)NC(=O)[C@@H](N)Cc1c[nH]cn1)[C@@H](C)O)[C@@H](C)O)C(C)C)C(C)C)C(N)=O [g320] (H-HSQGTFTSDYSKYLDSRRAQDFVQWLVRGGPSSGAPPPSK(Palmitoyl)-NH2; N-terminus assumed) | 9.00 | 11.49 | 11.03 |

— patent US20200354426A1 (MEDIMMUNE LIMITED, priority 2016, published 2020)
